Source: patent US8871681B2, “Herbicidal compositions comprising 4-amino-3-chloro-5-fluoro-6-(4-chloro-2-fluoro-3-methoxyphenyl) pyridine-2-carboxylic acid or a derivative thereof and certain sulfonylureas” (Dow AgroSciences LLC, priority 2012, dated 2014)
“And” between values parts separate entries of the source, which are not always exact repeats. Identical values can stand only once.

Tested on: CYPIR (Cyperus iria, rice flatsedge)
Experiment: Postemergence foliar-applied weed control, direct seeded rice, greenhouse (Example I)
Type: in vivo, Cyperus iria L.
Method in brief: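 Greenhouse-grown plants (14 h photoperiod, 29/26 °C day/night) at first to fourth true leaf stage sprayed overhead at 187 L/ha with Compound A (acid equivalent basis) alone or mixed with sulfonylurea ALS inhibitors (active ingredient basis). Final spray contained 1.25% v/v crop oil concentrate; controls received solvent blank.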

Structure (SMILES)	Visual Weed Control (%) Obs (21 DAA, 4.38 gae/ha) [%]	Visual Weed Control (%) Obs (22 DAA, 8 gae/ha) [%]	Visual Weed Control (%) Obs (22 DAA, 16 gae/ha)	Visual Weed Control (%) Obs (21 DAA, 0.05 gai/ha) [%]	Visual Weed Control (%) Obs (21 DAA, 0.1 gai/ha) [%]	Visual Weed Control (%) Obs (21 DAA, 0.2 gai/ha) [%]	Visual Weed Control (%) Obs (20 DAA, 4.38 gae/ha) [%]	Visual Weed Control (%) Obs (20 DAA, 8.75 gae/ha) [%]	Visual Weed Control (%) Obs (20 DAA, 17.5 gae/ha) [%]
COc1c(Cl)ccc(-c2nc(C(=O)O)c(Cl)c(N)c2F)c1F [Compound A Acid, 4-amino-3-chloro-5-fluoro-6-(4-chloro-2-fluoro-3-methoxy-phenyl)pyridine-2-carboxylic acid]	70	60	90%	–	–	–	–	–	–
COCC(=O)OC(c1ncccc1S(=O)(=O)NC(=O)Nc1nc(OC)cc(OC)n1)C(C)F (centres unmarked) [Flucetosulfuron, 1-[3-[[[[(4,6-dimethoxy-2-pyrimidinyl)amino]carbonyl]amino]sulfonyl]-2-pyridinyl]-2-fluoropropyl 2-methoxyacetate]	–	–	–	0	0	20	–	–	–
COc1c(Cl)ccc(-c2nc(C(=O)OCc3ccccc3)c(Cl)c(N)c2F)c1F [Compound A Benzyl Ester]	50	–	60% and 80%	–	–	–	15	60	90
